From the supplement of paper PMC10307832

Tests used:
Experiment in all cases: relative viability (nuclei count vs DMSO), 5 days (fraction); higher = more cells survive
[1] = compound: O=C(NCCCNc1nc(Nc2cccc(NC(=O)N3CCCC3)c2)ncc1I)c1cccs1 [BX 795] + CC(=O)c1c(C)c2cnc(Nc3ccc(N4CCNCC4)cn3)nc2n(C2CCCC2)c1=O [Palbociclib] (partner 0.5 µM)
In short: (§1)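 A single step with final 0.05% Triton X-100, 1% formaldehyde and 1 ug/ml Hoechst fixed the cells and stained nuclei 5 days after treatment. Lung cancer cell lines in 1536-well plates had been treated by pin tool the day after seeding with one drug alone or a fixed anchor-drug dose plus five library-drug doses (not always all listed) in √10 steps, and nuclei were counted on 4× images. Relative viability is the ratio of nuclei in treated wells to nuclei in vehicle wells, taken as the median of duplicate plates.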

[2] = compound: O=C(NCCCNc1nc(Nc2cccc(NC(=O)N3CCCC3)c2)ncc1I)c1cccs1 [BX 795] + C[C@]1(O)C[C@@H](c2nc(-c3ccc4ccc(-c5ccccc5)nc4c3)c3c(N)nccn32)C1 [Linsitinib] (partner 1 µM)
In short: as §1

[3] = compound: O=C(NCCCNc1nc(Nc2cccc(NC(=O)N3CCCC3)c2)ncc1I)c1cccs1 [BX 795] + Cc1cc(Nc2cc(N3CCN(C)CC3)nc(Sc3ccc(NC(=O)C4CC4)cc3)n2)n[nH]1 [Tozasertib] (partner 0.1 µM)
In short: as §1

[4] = compound: O=C(NCCCNc1nc(Nc2cccc(NC(=O)N3CCCC3)c2)ncc1I)c1cccs1 [BX 795] + Cc1nc(Nc2ncc(C(=O)Nc3c(C)cccc3Cl)s2)cc(N2CCN(CCO)CC2)n1 [Dasatinib] (partner 0.075 µM)
In short: as §1

[5] = compound: O=C(NCCCNc1nc(Nc2cccc(NC(=O)N3CCCC3)c2)ncc1I)c1cccs1 [BX 795] + Nc1ncn([C@H]2C[C@H](O)[C@@H](CO)O2)c(=O)n1 [Decitabine] (partner 2 µM)
In short: as §1

## NCI-H2009
[1]; first compound 0.04 µM
  relative viability: 0.24
[1]; first compound 0.1265 µM
  relative viability: 0.233
[1]; first compound 0.4 µM
  relative viability: 0.185
[1]; first compound 1.265 µM
  relative viability: 0.167
[2]; first compound 0.04 µM
  relative viability: 1.27
[2]; first compound 0.1265 µM
  relative viability: 1.19
[2]; first compound 0.4 µM
  relative viability: 1.19
[2]; first compound 1.265 µM
  relative viability: 0.871
[3]; first compound 0.04 µM
  relative viability: 0.705
[3]; first compound 0.1265 µM
  relative viability: 0.714
[3]; first compound 0.4 µM
  relative viability: 0.678
[3]; first compound 1.265 µM
  relative viability: 0.381
[4]; first compound 0.04 µM
  relative viability: 0.261
[4]; first compound 0.1265 µM
  relative viability: 0.292
[4]; first compound 0.4 µM
  relative viability: 0.249
[4]; first compound 1.265 µM
  relative viability: 0.162
[5]; first compound 0.04 µM
  relative viability: 0.391
[5]; first compound 0.1265 µM
  relative viability: 0.39
[5]; first compound 0.4 µM
  relative viability: 0.4
[5]; first compound 1.265 µM
  relative viability: 0.374

## NCI-H2023
[1]; first compound 0.04 µM
  relative viability: 0.4
[1]; first compound 0.1265 µM
  relative viability: 0.366
[1]; first compound 0.4 µM
  relative viability: 0.358
[1]; first compound 1.265 µM
  relative viability: 0.17
[2]; first compound 0.04 µM
  relative viability: 0.572
[2]; first compound 0.1265 µM
  relative viability: 0.71
[2]; first compound 0.4 µM
  relative viability: 0.445
[2]; first compound 1.265 µM
  relative viability: 0.314
[3]; first compound 0.04 µM
  relative viability: 0.316
[3]; first compound 0.1265 µM
  relative viability: 0.295
[3]; first compound 0.4 µM
  relative viability: 0.215
[3]; first compound 1.265 µM
  relative viability: 0.139
[4]; first compound 0.04 µM
  relative viability: 0.5
[4]; first compound 0.1265 µM
  relative viability: 0.54
[4]; first compound 0.4 µM
  relative viability: 0.306
[4]; first compound 1.265 µM
  relative viability: 0.302
[5]; first compound 0.04 µM
  relative viability: 0.241
[5]; first compound 0.1265 µM
  relative viability: 0.238
[5]; first compound 0.4 µM
  relative viability: 0.21
[5]; first compound 1.265 µM
  relative viability: 0.199

## NCI-H2085
[1]; first compound 0.04 µM
  relative viability: 0.466
[1]; first compound 0.1265 µM
  relative viability: 0.465
[1]; first compound 0.4 µM
  relative viability: 0.515
[1]; first compound 1.265 µM
  relative viability: 0.51
[2]; first compound 0.04 µM
  relative viability: 0.883
[2]; first compound 0.1265 µM
  relative viability: 0.961
[2]; first compound 0.4 µM
  relative viability: 1.04
[2]; first compound 1.265 µM
  relative viability: 0.737
[3]; first compound 0.04 µM
  relative viability: 0.797
[3]; first compound 0.1265 µM
  relative viability: 0.84
[3]; first compound 0.4 µM
  relative viability: 0.771
[3]; first compound 1.265 µM
  relative viability: 0.66
[4]; first compound 0.04 µM
  relative viability: 0.25
[4]; first compound 0.1265 µM
  relative viability: 0.214
[4]; first compound 0.4 µM
  relative viability: 0.221
[4]; first compound 1.265 µM
  relative viability: 0.249
[5]; first compound 0.04 µM
  relative viability: 0.683
[5]; first compound 0.1265 µM
  relative viability: 0.501
[5]; first compound 0.4 µM
  relative viability: 0.737
[5]; first compound 1.265 µM
  relative viability: 0.575

## NCI-H2087
[1]; first compound 0.04 µM
  relative viability: 0.219
[1]; first compound 0.1265 µM
  relative viability: 0.248
[1]; first compound 0.4 µM
  relative viability: 0.322
[1]; first compound 1.265 µM
  relative viability: 0.209
[2]; first compound 0.04 µM
  relative viability: 1.1
[2]; first compound 0.1265 µM
  relative viability: 0.924
[2]; first compound 0.4 µM
  relative viability: 1.06
[2]; first compound 1.265 µM
  relative viability: 0.647
[3]; first compound 0.04 µM
  relative viability: 0.266
[3]; first compound 0.1265 µM
  relative viability: 0.293
[3]; first compound 0.4 µM
  relative viability: 0.307
[3]; first compound 1.265 µM
  relative viability: 0.183
[4]; first compound 0.04 µM
  relative viability: 0.895
[4]; first compound 0.1265 µM
  relative viability: 0.814
[4]; first compound 0.4 µM
  relative viability: 0.79
[4]; first compound 1.265 µM
  relative viability: 0.619
[5]; first compound 0.04 µM
  relative viability: 0.387
[5]; first compound 0.1265 µM
  relative viability: 0.347
[5]; first compound 0.4 µM
  relative viability: 0.369
[5]; first compound 1.265 µM
  relative viability: 0.143

## NCI-H2126
[1]; first compound 0.04 µM
  relative viability: 0.387
[1]; first compound 0.1265 µM
  relative viability: 0.329
[1]; first compound 0.4 µM
  relative viability: 0.35
[1]; first compound 1.265 µM
  relative viability: 0.34
[2]; first compound 0.04 µM
  relative viability: 0.714
[2]; first compound 0.1265 µM
  relative viability: 0.656
[2]; first compound 0.4 µM
  relative viability: 0.757
[2]; first compound 1.265 µM
  relative viability: 0.701
[3]; first compound 0.04 µM
  relative viability: 0.85
[3]; first compound 0.1265 µM
  relative viability: 0.883
[3]; first compound 0.4 µM
  relative viability: 0.831
[3]; first compound 1.265 µM
  relative viability: 0.758
[4]; first compound 0.04 µM
  relative viability: 0.649
[4]; first compound 0.1265 µM
  relative viability: 0.658
[4]; first compound 0.4 µM
  relative viability: 0.507
[4]; first compound 1.265 µM
  relative viability: 0.599
[5]; first compound 0.04 µM
  relative viability: 0.626
[5]; first compound 0.1265 µM
  relative viability: 0.553
[5]; first compound 0.4 µM
  relative viability: 0.747
[5]; first compound 1.265 µM
  relative viability: 0.593

## NCI-H2347
[1]; first compound 0.04 µM
  relative viability: 0.496
[1]; first compound 0.1265 µM
  relative viability: 0.417
[1]; first compound 0.4 µM
  relative viability: 0.523
[1]; first compound 1.265 µM
  relative viability: 0.496
[2]; first compound 0.04 µM
  relative viability: 1.09
[2]; first compound 0.1265 µM
  relative viability: 0.962
[2]; first compound 0.4 µM
  relative viability: 1.17
[2]; first compound 1.265 µM
  relative viability: 0.942
[3]; first compound 0.04 µM
  relative viability: 0.817
[3]; first compound 0.1265 µM
  relative viability: 0.64
[3]; first compound 0.4 µM
  relative viability: 0.603
[3]; first compound 1.265 µM
  relative viability: 0.441
[4]; first compound 0.04 µM
  relative viability: 0.385
[4]; first compound 0.1265 µM
  relative viability: 0.325
[4]; first compound 0.4 µM
  relative viability: 0.293
[4]; first compound 1.265 µM
  relative viability: 0.283
[5]; first compound 0.04 µM
  relative viability: 0.65
[5]; first compound 0.1265 µM
  relative viability: 0.653
[5]; first compound 0.4 µM
  relative viability: 0.69
[5]; first compound 1.265 µM
  relative viability: 0.636

## NCI-H2405
[1]; first compound 0.04 µM
  relative viability: 0.535
[1]; first compound 0.1265 µM
  relative viability: 0.537
[1]; first compound 0.4 µM
  relative viability: 0.384
[1]; first compound 1.265 µM
  relative viability: 0.566
[2]; first compound 0.04 µM
  relative viability: 0.871
[2]; first compound 0.1265 µM
  relative viability: 0.828
[2]; first compound 0.4 µM
  relative viability: 0.678
[2]; first compound 1.265 µM
  relative viability: 0.694
[3]; first compound 0.04 µM
  relative viability: 0.799
[3]; first compound 0.1265 µM
  relative viability: 0.715
[3]; first compound 0.4 µM
  relative viability: 0.746
[3]; first compound 1.265 µM
  relative viability: 0.581
[4]; first compound 0.04 µM
  relative viability: 0.185
[4]; first compound 0.1265 µM
  relative viability: 0.193
[4]; first compound 0.4 µM
  relative viability: 0.191
[4]; first compound 1.265 µM
  relative viability: 0.187
[5]; first compound 0.04 µM
  relative viability: 0.869
[5]; first compound 0.1265 µM
  relative viability: 0.742
[5]; first compound 0.4 µM
  relative viability: 0.693
[5]; first compound 1.265 µM
  relative viability: 0.722

## NCI-H3122
[1]; first compound 0.04 µM
  relative viability: 0.182
[1]; first compound 0.1265 µM
  relative viability: 0.221
[1]; first compound 0.4 µM
  relative viability: 0.208
[1]; first compound 1.265 µM
  relative viability: 0.226
[2]; first compound 0.04 µM
  relative viability: 0.989
[2]; first compound 0.1265 µM
  relative viability: 1.02
[2]; first compound 0.4 µM
  relative viability: 1.08
[2]; first compound 1.265 µM
  relative viability: 1.1
[3]; first compound 0.04 µM
  relative viability: 0.387
[3]; first compound 0.1265 µM
  relative viability: 0.415
[3]; first compound 0.4 µM
  relative viability: 0.323
[3]; first compound 1.265 µM
  relative viability: 0.356
[4]; first compound 0.04 µM
  relative viability: 0.791
[4]; first compound 0.1265 µM
  relative viability: 1
[4]; first compound 0.4 µM
  relative viability: 0.8
[4]; first compound 1.265 µM
  relative viability: 0.852
[5]; first compound 0.04 µM
  relative viability: 0.415
[5]; first compound 0.1265 µM
  relative viability: 0.428
[5]; first compound 0.4 µM
  relative viability: 0.477
[5]; first compound 1.265 µM
  relative viability: 0.532
